According to PubChem BioAssay AID651732 (NMMLSC, 2012):
Active and inactive are the calls of the source.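 Rule for the calls: active = cytotoxic compounds whose viability ratio versus DMSO control falls below 0.85 at 10 µM; inactive = the rest.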

Tested on: U937 viability, trypan blue exclusion, 24 h
Experiment: viability loss in U937 leukemia cells – cell-based, trypan blue exclusion, cytotoxicity control for Cdc42 probe extension project, late-stage follow-up (AID 651732)
Settings: at 30 µM (top of the series)

COc1ccc(C2CC(c3ccccc3)=NN2c2ccc(S(N)(=O)=O)cc2)cc1 (stereo unspecified)
viability ratio to DMSO: 0.19 (inactive)
